For 18 compounds, IC50 and Ki results are on record in patent US12649733B2, “3,6-diamino-pyridazin-3-yl derivatives, pharmaceutical compositions containing them and their uses as pro-apoptotic agents” (LES LABORATOIRES SERVIER, priority 2019, dated 2026).

A value given as a limit tells only on which side of the number the result lay.

Assay [1] relates to H146 cells. In words: H146 cell viability, MTT assay. Type of assay: cell-based. The conditions noted are these: Homo sapiens, NCI-H146, 48 h, 48 h exposure. In a few lines: (§1)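 Viability read by MTT reduction (OD 540 nm after overnight SDS/HCl lysis) after 48 h compound treatment of cells in RPMI 1640/10% FBS. Triplicates at nine concentrations, 3.16-fold apart; four-parameter curve fitting yields IC50.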
On the technique in general: Tetrazolium assays rely on reduction of a dye to a coloured formazan, in cell work by metabolically active cells.

The target of assay [2] is T1, Bcl-xL protein (Homo sapiens, UniProt Q07817, N197C).
T1 construct: (2-197)[N197C]; His-His (two His8 stretches joined by a Gly/Ala/Ser/Thr linker)
The assay can be described thus: Fluorescence quenching assay (PUMA peptide displacement). Conditions: 1 nM protein, 400 nM peptide, 2 hours at 23° C.; KI determined from IC50. The assay is classed as binding. Summed up: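 Compounds were tested as an 11-point series in pH 7.4 HEPES/NaCl/Tween buffer with 5% DMSO, 2 h at 23 °C. Cy5-tagged Bcl-xL(2-197, N197C) at 1 nM and quencher-tagged PUMA peptide at 400 nM were used. Competitive binders restore fluorescence (620/680 nm), and IC50 values were converted to KI.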

The test system of assay [3] is MOLT-4 cells. In words: MOLT-4 cell viability, MTT assay. Conditions: Homo sapiens, MOLT-4, 48 h, 48 h exposure. Type of assay: cell-based. In a few lines:
as §1

T1 sequence (Q07817 2-197 N197C): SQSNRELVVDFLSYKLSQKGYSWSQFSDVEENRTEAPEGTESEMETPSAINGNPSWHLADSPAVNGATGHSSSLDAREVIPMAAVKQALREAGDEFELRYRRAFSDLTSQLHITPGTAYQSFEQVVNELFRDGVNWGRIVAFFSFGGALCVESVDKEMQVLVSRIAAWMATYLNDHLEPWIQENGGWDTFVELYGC

By IC50 is commonly meant the concentration that gives 50% inhibition. For orientation: Ki means a measure of affinity in units of concentration, obtained from inhibition or displacement. For the compound `Cc1cc(N(CCCCCNCCCN2CCN(C)CC2)c2nc(C(=O)O)c(CCCOc3ccc(C#CCN(C)C)cc3F)s2)nnc1Nc1nc2ccccc2s1` [Example 195, 2-[[6-(1,3-Benzothiazol-2-ylamino)-5-methyl-pyridazin-3-yl]-[5-[3-(4-methylpiperazin-1-yl)propylamino]pentyl]amino]-5-[3-[4-[3-(dimethylamino)prop-1-ynyl]-2-fluoro-phenoxy]propyl]thiazole-4-carboxylic acid], the IC50 in assay [1] stood at 525 nM; in assay [3], 529 nM. Besides, the Ki in assay [2] was found to be 0.0018 nM.
As to `Cc1cc(N(C)c2nc(C(=O)O)c(CCCOc3ccc(C#CCN4CCOCC4)cc3F)s2)nnc1Nc1nc2ccccc2s1` [Example 198, 2-[[6-(1,3-Benzothiazol-2-ylamino)-5-methyl-pyridazin-3-yl]-methyl-amino]-5-[3-[2-fluoro-4-(3-morpholinoprop-1-ynyl)phenoxy]propyl]thiazole-4-carboxylic acid], the half-maximal inhibitory concentration (IC50) amounted to 1420 nM in assay [1] and 1.59 nM in assay [3]. For the same compound, the Ki in assay [2] amounted to 0.0073 nM.
`CNCC#Cc1ccc(OCCCc2sc(N(CCCCCCN(C)C)c3cc(C)c(Nc4nc5ccccc5s4)nn3)nc2C(=O)O)c(F)c1` [Example 199, 2-[[6-(1,3-Benzothiazol-2-ylamino)-5-methyl-pyridazin-3-yl]-[6-(dimethylamino)hexyl]amino]-5-[3-[2-fluoro-4-[3-(methylamino)prop-1-ynyl]phenoxy]propyl]thiazole-4-carboxylic acid]: the IC50 amounted to 64.1 nM in assay [1] and 25.9 nM in assay [3]. Moreover, in assay [2], the Ki was 0.001 nM.
In the case of `CNCC#Cc1ccc(OCCCc2sc(N(CCCN(C)C)c3cc(C)c(Nc4nc5ccccc5s4)nn3)nc2C(=O)O)c(F)c1` [Example 200], the results for the IC50 in assay [1] and in assay [3] were 115 nM and 695 nM, respectively. Moreover, the Ki in assay [2] was found to be 0.0077 nM.
For the compound `CNCC#Cc1ccc(OCCCc2sc(N(CC[N+](C)(C)C)c3cc(C)c(Nc4nc5ccccc5s4)nn3)nc2C(=O)[O-])c(F)c1` [Example 201, 2-[[6-(1,3-Benzothiazol-2-ylamino)-5-methyl-pyridazin-3-yl]-[2-(trimethylammonio)ethyl]amino]-5-[3-[2-fluoro-4-[3-(methylamino)prop-1-ynyl]phenoxy]propyl]thiazole-4-carboxylate], the half-inhibitory concentration (IC50) in assay [1] was found to be 75.3 nM; in assay [3], 417 nM. For the same compound, the Ki in assay [2] was determined as 0.0019 nM.
`Cc1cc(N(C)c2nc(C(=O)O)c(CCCOc3ccc(C#CCN4CCCC4)cc3F)s2)nnc1Nc1nc2ccccc2s1` [Example 203, 2-[[6-(1,3-Benzothiazol-2-ylamino)-5-methyl-pyridazin-3-yl]-methyl-amino]-5-[3-[2-fluoro-4-(3-pyrrolidin-1-ylprop-1-ynyl)phenoxy]propyl]thiazole-4-carboxylic acid]: the IC50 in assay [1] was found to be 3.9 nM; in assay [3], 0.753 nM. Moreover, in assay [2], the Ki came out at 0.0022 nM.
Regarding `Cc1cc(N(C)c2nc(C(=O)O)c(CCCOc3ccc(C#CCN4CCCCC4)cc3F)s2)nnc1Nc1nc2ccccc2s1` [Example 204, 2-[[6-(1,3-Benzothiazol-2-ylamino)-5-methyl-pyridazin-3-yl]-methyl-amino]-5-[3-[2-fluoro-4-[3-(1-piperidyl)prop-1-ynyl]phenoxy]propyl]thiazole-4-carboxylic acid], the IC50 in assay [1] came to 7.3 nM; in assay [3], 0.703 nM. For the same compound, the Ki in assay [2] worked out at 0.006 nM.
On to `Cc1cc(N(C)c2nc(C(=O)O)c(CCCOc3ccc(C#CC(C)N(C)C)cc3F)s2)nnc1Nc1nc2ccccc2s1` (stereo not drawn) [Example 205, 2-[[6-(1,3-Benzothiazol-2-ylamino)-5-methyl-pyridazin-3-yl]-methyl-amino]-5-[3-[4-[3-(dimethylamino)but-1-ynyl]-2-fluoro-phenoxy]propyl]thiazole-4-carboxylic acid], for which the concentration for half-maximal inhibition (IC50) in assay [1] is not above 5.93 nM; in assay [3] it was 0.374 nM. In assay [2], the Ki turned out to be 0.0023 nM.
Consider `CNCC#Cc1ccc(OCCCc2sc(N(CCN(C)C)c3cc(C)c(Nc4nc5ccccc5s4)nn3)nc2C(=O)O)c(F)c1` [Example 207, 2-[[6-(1,3-Benzothiazol-2-ylamino)-5-methyl-pyridazin-3-yl]-[2-(dimethylamino)ethyl]amino]-5-[3-[2-fluoro-4-[3-(methylamino)prop-1-ynyl]phenoxy]propyl]thiazole-4-carboxylic acid], for which the IC50 in assay [1] is 1080 nM; in assay [3] it was 3280 nM. Moreover, the Ki in assay [2] was found to be 0.0037 nM.
Consider `Cc1cc(N(CCCC(O)C[N+](C)(C)C)c2nc(C(=O)[O-])c(CCCOc3ccc(C#CCN(C)C)cc3F)s2)nnc1Nc1nc2ccccc2s1` (stereo not drawn) [Example 211, 2-[[6-(1,3-Benzothiazol-2-ylamino)-5-methyl-pyridazin-3-yl]-[4-hydroxy-5-(trimethylammonio)pentyl]amino]-5-[3-[4-[3-(dimethylamino)prop-1-ynyl]-2-fluoro-phenoxy]propyl]thiazole-4-carboxylate], for which the results for the IC50 in assay [1] and in assay [3] were 66.8 nM and 484 nM, respectively. Moreover, in assay [2], the Ki is 0.0065 nM.
For the compound `CNCC#Cc1ccc(OCCCc2sc(N(CCCCC[N+](C)(C)CCCS(=O)(=O)[O-])c3cc(C)c(Nc4nc5ccccc5s4)nn3)nc2C(=O)O)c(F)c1` [Example 212, 3-[5-[[6-(1,3-Benzothiazol-2-ylamino)-5-methyl-pyridazin-3-yl]-[4-carboxy-5-[3-[2-fluoro-4-[3-(methylamino)prop-1-ynyl]phenoxy]propyl]thiazol-2-yl]amino]pentyl-dimethyl-ammonio]propane-1-sulfonate], the IC50 worked out at 3240 nM in assay [1] and 2880 nM in assay [3]. Moreover, the Ki in assay [2] came to 0.001 nM.
Take `CNCC#Cc1ccc(OCCCc2sc(N(CCCCCN(C)C)c3cc(C)c(Nc4nc5ccccc5s4)nn3)nc2C(=O)O)c(F)c1` [Example 213, 2-[[6-(1,3-Benzothiazol-2-ylamino)-5-methyl-pyridazin-3-yl]-[5-(dimethylamino)pentyl]amino]-5-[3-[2-fluoro-4-[3-(methylamino)prop-1-ynyl]phenoxy]propyl]thiazole-4-carboxylic acid]: the figures for the IC50 in assay [1] and in assay [3] were 72.8 nM and 93.6 nM, respectively. In addition, the Ki in assay [2] worked out at 0.0015 nM.
Take `Cc1cc(N(C)c2nc(C(=O)O)c(CCCOc3ccc(CCCN(C)C)cc3F)s2)nnc1Nc1nc2ccccc2s1` [Example 214, 2-[[6-(1,3-Benzothiazol-2-ylamino)-5-methyl-pyridazin-3-yl]-methyl-amino]-5-[3-[4-[3-(dimethylamino)propyl]-2-fluoro-phenoxy]propyl]thiazole-4-carboxylic acid]: the figures for the IC50 in assay [1] and in assay [3] were 26.7 nM and 22.5 nM, respectively. Moreover, the Ki in assay [2] was found to be 0.004 nM.
For `Cc1cc(N(CCCC(O)C[N+]23CCC(CC2)CC3)c2nc(C(=O)[O-])c(CCCOc3ccc(C#CCN(C)C)cc3F)s2)nnc1Nc1nc2ccccc2s1` (stereo not drawn) [Example 215, 2-[[6-(1,3-Benzothiazol-2-ylamino)-5-methyl-pyridazin-3-yl]-(4-hydroxy-5-quinuclidin-1-ium-1-yl-pentyl)amino]-5-[3-[4-[3-(dimethylamino)prop-1-ynyl]-2-fluoro-phenoxy]propyl]thiazole-4-carboxylate] the same measures were 174 nM, 406 nM and 0.0031 nM.
On the same counts, the results for `Cc1cc(N(CCCC(O)C[N+]23CCN(CC2)CC3)c2nc(C(=O)[O-])c(CCCOc3ccc(C#CCN(C)C)cc3F)s2)nnc1Nc1nc2ccccc2s1` (stereo not drawn) [Example 216, 2-[[5-(1-aza-4-azoniabicyclo[2.2.2]octan-4-yl)-4-hydroxy-pentyl]-[6-(1,3-benzothiazol-2-ylamino)-5-methyl-pyridazin-3-yl]amino]-5-[3-[4-[3-(dimethylamino)prop-1-ynyl]-2-fluoro-phenoxy]propyl]thiazole-4-carboxylate] are 222 nM, 146 nM and 0.004 nM.
With `Cc1cc(N(CCCC(O)C[N+]2(C)CCOCC2)c2nc(C(=O)[O-])c(CCCOc3ccc(C#CCN(C)C)cc3F)s2)nnc1Nc1nc2ccccc2s1` (stereo not drawn) [Example 217, 2-[[6-(1,3-Benzothiazol-2-ylamino)-5-methyl-pyridazin-3-yl]-[4-hydroxy-5-(4-methylmorpholin-4-ium-4-yl)pentyl]amino]-5-[3-[4-[3-(dimethylamino)prop-1-ynyl]-2-fluoro-phenoxy]propyl]thiazole-4-carboxylate], the IC50 was 86.2 nM in assay [1] and 180 nM in assay [3]. The Ki in assay [2] worked out at 0.0041 nM.
On the same counts, the results for `Cc1cc(N(C)c2nc(C(=O)O)c(CCCOc3ccc(C#CCNCC[N+](C)(C)CCCS(=O)(=O)[O-])cc3F)s2)nnc1Nc1nc2ccccc2s1` [Example 218, 3-[2-[3-[4-[3-[2-[[6-(1,3-Benzothiazol-2-ylamino)-5-methyl-pyridazin-3-yl]-methyl-amino]-4-carboxy-thiazol-5-yl]propoxy]-3-fluoro-phenyl]prop-2-ynylamino]ethyl-dimethyl-ammonio]propane-1-sulfonate] are 891 nM, 270 nM and 0.0012 nM.
For `Cc1cc(N(CCCC(O)C[N+]2(C)CCCCC2)c2nc(C(=O)[O-])c(CCCOc3ccc(C#CCN(C)C)cc3F)s2)nnc1Nc1nc2ccccc2s1` (stereo not drawn) [Example 220, 2-[[6-(1,3-Benzothiazol-2-ylamino)-5-methyl-pyridazin-3-yl]-[4-hydroxy-5-(1-methylpiperidin-1-ium-1-yl)pentyl]amino]-5-[3-[4-[3-(dimethylamino)prop-1-ynyl]-2-fluoro-phenoxy]propyl]thiazole-4-carboxylate], the values for the IC50 in assay [1] and in assay [3] were 221 nM and 984 nM, respectively. Besides, in assay [2], the Ki came to 0.0035 nM.
